Reference: ChEMBL document CHEMBL5143547, “Antimycobacterial and anti-inflammatory activities of thiourea derivatives focusing on treatment approaches for severe pulmonary tuberculosis” (Bioorg Med Chem, 2022)
Calls of active or inactive are those of the source. No cut-off for these calls is given here.

How the values were obtained:
[1] = Selectivity index, ratio of CC50 for cytotoxicity against LPS-stimulated mouse RAW264.7 cells to MIC50 for antitubercular activity against Mycobacterium tuberculosis H37Rv; type: toxicity, cell-based; conditions: LPS-stimulated RAW264.7 cells, read-out: Selectivity Index
[2] = test system: Mycobacterium tuberculosis; assay: Antitubercular activity against Mycobacterium tuberculosis H37Rv assessed as reduction in microbial growth after 5 days by MTT assay; type: functional; conditions: 120 h, time 5 day
[3] = test system: RAW264.7; assay: Inhibition of NO production in mouse RAW264.7 cells incubated for 24 hrs by Griess reagent based analysis; type: functional, cell-based; conditions: RAW264.7, 24 h
[4] = Cytotoxicity against LPS-stimulated mouse RAW264.7 cells after 24 hrs by MTT assay; type: toxicity, cell-based; conditions: LPS-stimulated RAW264.7 cells
[5] = test system: RAW264.7; assay: Anti-inflammatory activity against LPS-stimulated mouse RAW264.7 cells assessed as reduction in IL1beta protein expression level after 24 hrs by ELISA; type: functional, cell-based; conditions: RAW264.7, 24 h
[6] = test system: RAW264.7; assay: Anti-inflammatory activity against LPS-stimulated mouse RAW264.7 cells assessed as reduction in TNFalpha protein expression level at 12.5 uM after 24 hrs by ELISA; type: functional, cell-based
[7] = test system: RAW264.7; assay: Anti-inflammatory activity against LPS-stimulated mouse RAW264.7 cells assessed as reduction in TNFalpha protein expression level after 24 hrs by ELISA; type: functional, cell-based; conditions: RAW264.7, 24 h
[8] = test system: Mycobacterium tuberculosis; assay: Antitubercular activity against Mycobacterium tuberculosis M299 assessed as reduction in microbial growth after 5 days by MTT assay; type: functional, organism-based; conditions: M299, 120 h

Row | SMILES | selectivity ratio [1] | MIC50 [2] [µM] | IC50 [3] [µM] | CC50 at 24 h [4] [µM] | IC50 [5] [µM] | inhibition [6] | IC50 [7] [µM] | IC50 [8] [µM]
1 | S=C(NCc1ccccc1)N(c1ccccc1)c1ccccc1 | 0.3 | ≥ 200 | ≥ 200 | 67.6 |  |  |  | 
2 | CC(C)NC(=S)NCCc1ccccc1 | > 1.9 | 108 | 20.6 | ≥ 200 |  |  |  | 
3 | S=C(NCc1ccccc1)N1CCN(c2ncccn2)CC1 | 2.9 | 17.8 | ≥ 200 | 50.9 |  |  |  | 
4 | CCCCNC(=S)NCc1ccccc1 | 1.1 | 160 | 143 | 177 |  |  |  | 
5 | S=C(Nc1ccccc1)N1CCN(c2ccccc2Cl)CC1 | 0.8 | 37.3 | ≥ 200 | 30.5 |  |  |  | 
6 | O=C(C1CCCO1)N1CCN(C(=S)Nc2ccccc2)CC1 (configuration not stated) | > 8.6 | 23.3 | 187 | ≥ 200 |  |  |  | 
7 | S=C(Nc1ccccc1)Nc1ccc(Br)cc1 | 0.9 | 28.9 | 1.9 | 27.1 |  |  |  | 
8 | CC(C)Cc1ccc(C(C)C(=O)O)cc1 (configuration not stated) [IBUPROFEN] |  |  |  |  | 14.4 | Active | 2.1 | 
9 | CCN(CC)C(=S)NCc1ccccc1 | > 4.9 | 40.2 | 15.7 | ≥ 200 |  |  |  | 
10 | S=C(Nc1ccccc1)N1CCN(Cc2ccc3c(c2)OCO3)CC1 | > 8.4 | 23.9 | 116 | ≥ 200 |  |  |  | 
11 | CCN(CC)C(S)=NCCc1ccccc1 | 4.9 | 17.6 | ≥ 200 | 87.3 |  |  |  | 
12 | CNC(=N)NCCC[C@H](N)C(=O)O [TILARGININE ACETATE] |  |  | 78.3 |  |  |  |  | 
13 | COc1ccc(NC(=S)NCc2ccccc2)cc1 | 133 | 7.9 | ≥ 200 | 105 |  |  |  | 
14 | CCCCN1CCN(C(=S)Nc2ccccc2)CC1 | > 6.4 | 31.5 | ≥ 200 | ≥ 200 |  |  |  | 
15 | COc1cc(NC(=S)Nc2cc(OC)c(OC)c(OC)c2)cc(OC)c1OC | 0.9 | 64.2 | 31.8 | 60.6 |  |  |  | 
16 | S=C(NCCc1ccccc1)N1CCN(c2ccccn2)CC1 | 3.2 | 12.6 | ≥ 200 | 40.6 |  |  |  | 
17 | S=C(NCc1ccccc1)Nc1ccccn1 | > 1.1 | 17.7 | ≥ 200 | ≥ 200 |  |  |  | 
18 | COc1cc(NC(=S)N2CCN(c3ccc(O)cc3)CC2)cc(OC)c1OC | 0.2 | 80.9 | ≥ 200 | 17.3 |  |  |  | 
19 | S=C(Nc1ccccc1)Nc1ccccn1 | > 12.2 | 16.4 | 182 | ≥ 200 |  |  |  | 
20 | S=C(NCc1ccccc1)N1CCN(c2ccccc2)CC1 | 1.9 | 27.9 | 4.1 | 54.3 |  |  |  | 
21 | O=C(C1CCCO1)N1CCN(C(=S)NCc2ccccc2)CC1 (configuration not stated) | > 8 | 24.9 | ≥ 200 | ≥ 200 |  |  |  | 

Row | SMILES | selectivity ratio [1] | MIC50 [2] [µM] | IC50 [3] [µM] | CC50 at 24 h [4] [µM] | IC50 [5] [µM] | inhibition [6] | IC50 [7] [µM] | IC50 [8] [µM]
22 | S=C(Nc1ccccc1)N1CCN(c2ncccn2)CC1 | > 1.6 | 127 | ≥ 200 | ≥ 200 |  |  |  | 
23 | S=C(NCCc1ccccc1)N1CCOCC1 | > 1 | ≥ 200 | ≥ 200 | ≥ 200 |  |  |  | 
24 | OCCNC(=S)Nc1ccccc1 | 1.9 | 53.3 | ≥ 200 | 105 |  |  |  | 
25 | CCCCN1CCN(C(=S)NCc2ccccc2)CC1 | > 1.3 | 157 | ≥ 200 | ≥ 200 |  |  |  | 
26 | Oc1ccc(N2CCN(C(=S)Nc3ccccc3)CC2)cc1 | 1.2 | 155 | 155 | 186 |  |  |  | 
27 | N#CNC(=S)NCCc1ccccc1 | 1.9 | 33.3 | 10.1 | 65.9 |  |  |  | 
28 | COc1ccc(NC(S)=Nc2ccccc2)cc1 | 2.7 | 16.2 | ≥ 200 | 43.3 |  |  |  | 
29 | COc1cc(NC(=S)NC#N)cc(OC)c1OC | > 1.1 | 184 | 3.9 | ≥ 200 |  |  |  | 
30 | Oc1cccc(NC(=S)NCc2ccccc2)c1 | > 2.6 | 77.2 | 200 | ≥ 200 |  |  |  | 
31 | S=C(NCCc1ccccc1)N1CCN(c2nc3ccccc3[nH]2)CC1 | 1.7 | 20 | ≥ 200 | 33.7 |  |  |  | 
32 | S=C(Nc1ccccc1)N1CCN(c2ccccn2)CC1 | > 21.1 | 9.5 | ≥ 200 | ≥ 200 |  |  |  | 
33 | CO[C@H]1/C=C/O[C@@]2(C)Oc3c(C)c(O)c4c(O)c(c(/C=N/N5CCN(C)CC5)c(O)c4c3C2=O)NC(=O)/C(C)=C\C=C\[C@H](C)[C@H](O)[C@@H](C)[C@@H](O)[C@@H](C)[C@H](OC(C)=O)[C@@H]1C [RIFAMPIN] |  | 0.2 |  |  |  |  |  | 1.2
34 | S=C(NCc1ccccc1)N1CCN(Cc2ccc3c(c2)OCO3)CC1 | 15.9 | 8.5 | 110 | 136 |  |  |  | 
35 | O=C(NNC(=S)NCc1ccccc1)c1ccccc1 | 1.3 | 33.7 | ≥ 200 | 42.1 |  |  |  | 
36 | S=C(NCCc1ccccc1)N1CCN(c2ncccn2)CC1 | 1.2 | 34.9 | ≥ 200 | 40.6 |  |  |  | 
37 | S=C(NCc1ccccc1)Nc1ccc2c(c1)OCO2 | > 1.5 | 132 | 24.8 | ≥ 200 |  |  |  | 
38 | OCCN(CCO)C(=S)Nc1ccccc1 | > 1 | ≥ 200 | 50.7 | ≥ 200 |  |  |  | 
39 | CN(C[C@H](O)[C@@H](O)[C@H](O)[C@H](O)CO)C(=S)NCc1ccccc1 | 0.8 | 134 | ≥ 200 | 104 |  |  |  | 
40 | COc1cc(NC(=S)Nc2ccccc2)cc(OC)c1OC | 5.3 | 28.9 | 15.2 | 154 |  |  |  | 
41 | COc1ccc(CN2CCN(C(=S)Nc3ccccc3)CC2)c(OC)c1OC | 2.2 | 16 | ≥ 200 | 34.9 |  |  |  | 
42 | CC(C)NC(=S)NCc1ccccc1 | > 3.5 | 57.8 | ≥ 200 | ≥ 200 |  |  |  | 
